The values that follow come from US20240139217A1, “FORMULATIONS OF CANNABINOIDS” (ADD Advanced Drug Deliver Technologies LTD., priority 2021, published 2024).

This data set is described as follows: Clinical study of bioavailability and pharmacokinetic properties, multiple oral dose crossover. The data set is classed as in vivo, healthy subjects. The note with it: Mean; analyte cannabidiol in plasma; 1,500 mg CBD oral twice daily over 7 days after a light meal; 144-168 h. The method, then: Bioavailability and pharmacokinetic properties of cannabidiol when administered orally in the form of the above described CBD granules containing 29.7% w/w cannabidiol was assessed in a clinical study.
The study involved a comparison with a reference product, an oily cannabidiol solution (DAC C-052 “Cannabidiol”/NRF 22.10 “Ölige Cannabidiol-Lösung 100 mg/ml” (“Oily cannabidiol solution 100 mg/ml”)) and was set up as an open-label, randomised (order of treatments), balanced, multiple dose trial was performed in a 2-period, 2-sequence-crossover design with direct switch-over.
Eighteen (18) healthy subjects of both sexes were randomised. The inclusion criteria involved a body-mass index (BMI)≥18.5 kg/m^2 and ≤30.0 kg/m^2.
The investigational medicinal products were administered after a light meal as single oral doses of 1500 mg cannabidiol (i.e., 5.051 g granules dispersed in water or 15 ml solution) twice daily (i.e., every 12 h) over 7 consecutive days.
Steady-state characterisation was performed over 2 dosing intervals. […]
Cannabidiol (CBD) and its metabolite 7-hydoxy cannabidiol (7-OH-CBD) in plasma samples were analysed by use of a validated LC-MS/MS; LLOQ for CBD was 5.00 ng/ml and for 7-OH-CBD was 1.000 ng/ml.

In the case of `C=C(C)[C@@H]1CCC(C)=C[C@H]1c1c(O)cc(CCCCC)cc1O` [cannabidiol, 2-[(1R,6R)-3-methyl-6-(1-methylethenyl)-2-cyclohexen-1-yl]-5-pentyl-1,3-benzenediol], the “PTF %,144-168” value is “about 250%”.
